The text below walks through data of patent US20070054916A1, “Aryl nitrogen-containing bicyclic compounds and methods of use” (Amgen Inc., priority 2004, published 2007).

Bounds are passed on as bounds.

This assay concerns production of TNF by monocytes activated with bacterial lipopolysaccharide (LPS). Put plainly: Lipopolysaccharide-activated monocyte TNF production assay. Type of assay: cell-based. As to conditions: Homo sapiens, read-out: IC50 values in the monocyte assay (LPS induced TNF release). On the procedure:
Lipopolysaccharide-Activated Monocyte TNF Production Assay
Test compounds were evaluated in vitro for the ability to inhibit the production of TNF by monocytes activated with bacterial lipopolysaccharide (LPS). Fresh residual source leukocytes (a byproduct of plateletpheresis) were obtained from a local blood bank, and peripheral blood mononuclear cells (PBMCs) were isolated by density gradient centrifugation on Ficol-Paque Plus (Pharmacia). PBMCs were suspended at 2×10^6/ml in DMEM supplemented to contain 2% FCS, 10 mM, 0.3 mg/ml […], 100 U/ml penicillin G and […] streptomycin sulfate (complete media). Cells were plated into Falcon flat bottom, 96 well culture plates (200 μl/well) and cultured overnight at 37° C. and 6% CO2. Non-adherent cells were removed by washing with 200 μl/well of fresh medium. Wells containing adherent cells (˜70% monocytes) were replenished with 100 μl of fresh medium.
Preparation of Test Compound Stock Solutions
Test compounds were dissolved in […]. Compound stock solutions were prepared to an initial concentration of […]. Stocks were diluted initially to 20-200 μM in complete media. Nine two-fold serial dilutions of each compound were then prepared in complete medium.
Treatment of Cells with Test Compounds and Activation of TNF Production with Lipopolysaccharide
One hundred microliters of each test compound dilution were added to microtiter wells containing adherent monocytes and 100 μl complete medium. Monocytes were cultured with test compounds for 60 min at which time 25 μl of complete medium containing 30 ng/ml lipopolysaccharide from E. coli K532 were added to each well. Cells were cultured an additional 4 hrs. Culture supernatants were then removed and TNF presence in the supernatants was quantified using an ELISA.
Flat bottom, 96 well Corning High Binding ELISA plates were coated overnight (4° C.) with 150 μL/well of 3 μg/ml murine anti-human TNF-α MAb (R&D Systems #MAB210). Wells were then blocked for 1 hr at room temperature with 200 μL/well of CaCl2-free ELISA buffer supplemented to contain 20 mg/ml BSA (standard ELISA buffer: […], 150 mM NaCl, 2 mM CaCl2, 0.15 mM thimerosal, pH 7.4). Plates were washed and replenished with 100 μl of test supernatants (diluted 1:3) or standards. Standards consisted of eleven 1.5-fold serial dilutions from a stock of 1 ng/ml recombinant human TNF (R&D Systems). Plates were incubated at room temperature for 1 hr on orbital shaker (300 rpm), washed and replenished with 100 μl/well of 0.5 ug/ml goat anti-human TNF-α (R&D systems #AB-210-NA) biotinylated at a 4:1 ratio. Plates were incubated for 40 min, washed and replenished with 100 μl/well of alkaline phosphatase-conjugated streptavidin (Jackson ImmunoResearch #016-050-084) at 0.02 ug/ml. Plates were incubated 30 min, washed and replenished with 200 μl/well of 1 mg/ml of p-nitrophenyl phosphate. After 30 min, plates were read at 405 nm on a Vmax plate reader.
Standard curve data were fit to a second order polynomial and unknown TNF-α concentrations determined from their OD by solving this equation for concentration. TNF concentrations were then plotted vs. test compound concentration using a second order polynomial. This equation was then used to calculate the concentration of test compounds causing a 50% reduction in TNF production.

As to `Cc1cc(F)c(C(=O)Nc2cccc(C(F)(F)F)c2)cc1-c1ccc2nc(N)ncc2c1` [Example 126, 5-(2-amino-6-quinazolinyl)-2-fluoro-4-methyl-N-(3-(trifluoromethyl)phenyl)benzamide], the IC50 is ≤ 25 µM.
Under `Cc1ccc(NC(=O)c2cccc(C(C)C)c2)cc1-c1ccc2nc(N)ncc2c1` [Example 432, N-(3-(2-aminoquinazolin-6-yl)-4-methylphenyl)-3-isopropylbenzamide] stands ≤ 25 µM; under `Cc1ccc(C(=O)Nc2cccc(C(F)(F)F)n2)cc1-c1ccc2nc(N)ncc2c1` [Example 359, 3-(2-amino-6-quinazolinyl)-4-methyl-N-(6-(trifluoromethyl)-2-pyridinyl)benzamide], ≤ 25 µM.
Under `CN(C)CCCN(C)c1c(Cl)cc(C(F)(F)F)cc1NC(=O)c1cc(-c2ccc3nc(N)ncc3c2)ccc1F` [Example 59, 5-(2-amino-6-quinazolinyl)-N-(3-chloro-2-((3-(dimethylamino)propyl)(methyl)amino)-5-(trifluoromethyl)phenyl)-2-fluorobenzamide] stands ≤ 25 µM.
Next, `Cc1ccc(C(=O)Nc2ncc(Br)s2)cc1-c1ccc2nc(N)ncc2c1` [Example 356, 3-(2-amino-6-quinazolinyl)-N-(5-bromo-1,3-thiazol-2-yl)-4-methylbenzamide]: ≤ 25 µM; `CNc1ncc2cc(-c3cc(C(=O)Nc4ccc(Cl)c(C(F)(F)F)c4C)ccc3C)ccc2n1` [Example 3, N-(4-chloro-2-methyl-3-(trifluoromethyl)phenyl)-4-methyl-3-(2-(methylamino)-quinazolinyl)benzamide]: ≤ 25 µM; `CCN(CC)S(=O)(=O)c1ccc(OC)c(NC(=O)c2ccc(C)c(-c3cnc4nc(NC)ncc4c3)c2)c1` [Example 191, N-(5-((diethylamino)sulfonyl)-2-(methyloxy)phenyl)-4-methyl-3-(2-(methylamino)pyrido [2,3-d]pyrimidin-6-yl)benzamide]: ≤ 25 µM.
`Cc1ccc(C(=O)Nc2cc(C(F)(F)F)ccc2N2CCCCC2)cc1-c1ccc2nc(N)ncc2c1` [Example 76, 3-(2-amino-6-quinazolinyl)-4-methyl-N-(2-(1-piperidinyl)-5-(trifluoromethyl)phenyl)benzamide]: the 50% inhibitory concentration (IC50) is ≤ 25 µM.
Under `Cc1ccc(C(=O)Nc2ccc(NC(=O)NCCN3CCOCC3)c(C(F)(F)F)c2)cc1-c1ccc2nc(N)ncc2c1` [Example 4] stands ≤ 25 µM; under `CC(=O)c1sccc1NC(=O)c1ccc(C)c(-c2ccc3nc(N)ncc3c2)c1` [Example 355, N-(2-acetyl-3-thienyl)-3-(2-amino-6-quinazolinyl)-4-methylbenzamide], ≤ 25 µM.
Next, `CCN(CC)CCOc1ccc(OC)c(NC(=O)c2ccc(C)c(-c3ccc4nc(N)ncc4c3)c2)c1` [Example 71, 3-(2-amino-6-quinazolinyl)-N-(5-((2-(diethylamino)ethyl)oxy)-2-(methyloxy)phenyl)-4-methylbenzamide]: ≤ 25 µM; `Cc1ccc(C(=O)Nc2cc(C(F)(F)F)ccc2OCCN2CCCC2)cc1-c1ccc2nc(N)ncc2c1` [Example 420, 3-(2-amino-6-quinazolinyl)-4-methyl-N-(2-((2-(1-pyrrolidinyl)ethyl)oxy)-5-(trifluoromethyl)phenyl)benzamide]: ≤ 25 µM.
Next, `COc1ccc(NC(=O)c2ccc(C)c(-c3ccc4nc(N)ncc4c3)c2)c(OC)n1` [Example 233, 3-(2-amino-6-quinazolinyl)-N-(2,6-bis(methyloxy)-3-pyridinyl)-4-methylbenzamide]: ≤ 25 µM.
In the case of `Nc1ncc2cc(-c3cc(NC(=O)c4cccc(C(F)(F)F)c4)ccc3C(F)(F)F)ccc2n1` [Example 196], the IC50 is ≤ 25 µM.
Under `Nc1ncc2cc(-c3cc(C(=O)Nc4cccc(OC(F)(F)F)c4)ccc3Cl)ccc2n1` [Example 142, 3-(2-amino-6-quinazolinyl)-4-chloro-N-(3-((trifluoromethyl)oxy)phenyl)benzamide] stands ≤ 25 µM.
Turning to `Cc1ccc(NC(=O)c2ccccc2)cc1-c1ccc2nc(NC(=O)c3ccccc3)ncc2c1` [Example 483, N-(6-(2-methyl-5-((phenylcarbonyl)amino)phenyl)-2-quinazolinyl)benzamide], the IC50 was ≤ 25 µM.
For the compound `COc1cccc(NC(=O)c2ccc(C)c(-c3ccc4nc(N)ncc4c3)c2)c1OC` [Example 283, 3-(2-amino-6-quinazolinyl)-N-(5,6-bis(methyloxy)-phenyl)-4-methylbenzamide], the IC50 was ≤ 25 µM.
Next, `CCN(CC)S(=O)(=O)c1ccc(OC)c(NC(=O)c2ccc(C)c(-c3ccc4nc(N)ncc4c3)c2)c1` [Example 231, 3-(2-amino-6-quinazolinyl)-N-(5-((diethylamino)sulfonyl)-2-(methyloxy)phenyl)-4-methylbenzamide]: ≤ 25 µM; `Cc1ccc(C(=O)Nc2nc(C)c(C)s2)cc1-c1ccc2nc(N)ncc2c1` [Example 225, 3-(2-amino-6-quinazolinyl)-N-(4,5-dimethyl-1,3-thiazol-2-yl)-4-methylbenzamide]: ≤ 25 µM; `CNc1ncc2cc(-c3cc(C(=O)Nc4cc(C(F)(F)F)ccc4N(C)CCCN(C)C)ccc3C)cnc2n1` [Example 193, N-(2-((3-(dimethylamino)propyl)(methyl)amino)-5-(trifluoromethyl)phenyl)-4-methyl-3-(2-(methylamino)pyrido[2,3-d]pyrimidin-6-yl)benzamide]: ≤ 25 µM.
Under `CCN(CC)CCOc1ccc(NC(=O)c2ccc(C)c(-c3ccc4nc(N)ncc4c3)c2)c(OC)c1` [Example 70, 3-(2-amino-6-quinazolinyl)-N-(4-((2-(diethylamino)ethyl)oxy)-2-(methyloxy)phenyl)-4-methylbenzamide] stands ≤ 25 µM; under `Cc1ccc(C(=O)Nc2cc(C(F)(F)F)ccc2N(C)CCCN(C)C)cc1-c1ccc2nc(N)ncc2c1` [Example 114, 3-(2-amino-6-quinazolinyl)-N-(2-((3-(dimethylamino)propyl)(methyl)amino)-5-(trifluoromethyl)phenyl)-4-methylbenzamide], ≤ 25 µM.
Under `Nc1ncc2cc(-c3cc(NC(=O)c4cccc(C(F)(F)F)c4F)ccc3Cl)ccc2n1` [Example 481, N-(3-(2-amino-6-quinazolinyl)-4-chlorophenyl)-2-fluoro-3-(trifluoromethyl)benzamide] stands ≤ 25 µM.
With `Nc1ncc2cc(-c3ccc(F)c(NC(=O)c4ccccc4)c3)ccc2n1` [Example 485, N-(5-(2-amino-6-quinazolinyl)-2-fluorophenyl)benzamide], the IC50 was ≤ 25 µM.
Under `CNc1ncc2cc(-c3cc(NC(=O)c4cccc5c4OC(F)(F)O5)ccc3C)cnc2n1` [Example 214, 2,2-difluoro-N-(4-methyl-3-(2-(methylamino)pyrido[2,3-d]pyrimidin-6-yl)phenyl)-1,3-benzodioxole-4-carboxamide] stands ≤ 25 µM; under `Cc1ccc(C(=O)N[C@@H](C)c2nccs2)cc1-c1ccc2nc(N)ncc2c1` [Example 121, 3-(2-amino-6-quinazolinyl)-4-methyl-N-((1S)-1-(1,3-thiazol-2-yl)ethyl)benzamide], ≤ 25 µM.
Under `CNc1ncc2cc(-c3cc(NC(=O)c4cccc(C(F)(F)F)c4F)ccc3C)cnc2n1` [Example 202] stands ≤ 25 µM.
Next, `COc1ccc(C(=O)Nc2ccccc2)cc1NC(=O)c1ccc(C)c(-c2ccc3nc(N)ncc3c2)c1` [Example 145, 3-(2-amino-6-quinazolinyl)-4-methyl-N-(2-(methyloxy)-5-((phenylamino)carbonyl)phenyl) benzamide]: ≤ 25 µM; `CNc1ncc2cc(-c3cc(C(=O)Nc4cccc(C(F)(F)F)c4)ccc3C)ccc2n1` [Example 18, 4-methyl-3-(2-(methylamino)-6-quinazolinyl)-N-(3-(trifluoromethyl)phenyl)benzamide]: ≤ 25 µM.
